# Measured values taken from patent publication US9006450B2 (Boehringer Ingelheim International GmbH, priority 2010, dated 2015).
# Target: T1, human ACC2 (Homo sapiens, UniProt O00763)
# T1 construct: made in house; host or cells: insect cells (baculoviral expression system)
# Assay: ACC2 assay, spectrophotometric 384 well assay (NADH-linked, coupled lactate dehydrogenase/pyruvate kinase)
# Assay type: biochemical
# Conditions: ACC2 assay, hACC2 construct lacking 128 N-terminal amino acids, 25° C., 340 nm; read-out: IC50
# Summary of the method: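 ADP output tracked via pyruvate kinase/lactate dehydrogenase NADH oxidation, slope at 340 nm over 15 min, 25° C, with 500 μM ATP and 200 μM each acetyl-CoA and NADH. Enzyme: insect-cell-expressed human ACC2, N-terminal 128 residues deleted; pH 7.5 Tris with citrate, KHCO3. IC50 from four-parameter regression versus vehicle and no-acetyl-CoA controls.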
# T1 sequence (O00763 129-2458 limits assumed): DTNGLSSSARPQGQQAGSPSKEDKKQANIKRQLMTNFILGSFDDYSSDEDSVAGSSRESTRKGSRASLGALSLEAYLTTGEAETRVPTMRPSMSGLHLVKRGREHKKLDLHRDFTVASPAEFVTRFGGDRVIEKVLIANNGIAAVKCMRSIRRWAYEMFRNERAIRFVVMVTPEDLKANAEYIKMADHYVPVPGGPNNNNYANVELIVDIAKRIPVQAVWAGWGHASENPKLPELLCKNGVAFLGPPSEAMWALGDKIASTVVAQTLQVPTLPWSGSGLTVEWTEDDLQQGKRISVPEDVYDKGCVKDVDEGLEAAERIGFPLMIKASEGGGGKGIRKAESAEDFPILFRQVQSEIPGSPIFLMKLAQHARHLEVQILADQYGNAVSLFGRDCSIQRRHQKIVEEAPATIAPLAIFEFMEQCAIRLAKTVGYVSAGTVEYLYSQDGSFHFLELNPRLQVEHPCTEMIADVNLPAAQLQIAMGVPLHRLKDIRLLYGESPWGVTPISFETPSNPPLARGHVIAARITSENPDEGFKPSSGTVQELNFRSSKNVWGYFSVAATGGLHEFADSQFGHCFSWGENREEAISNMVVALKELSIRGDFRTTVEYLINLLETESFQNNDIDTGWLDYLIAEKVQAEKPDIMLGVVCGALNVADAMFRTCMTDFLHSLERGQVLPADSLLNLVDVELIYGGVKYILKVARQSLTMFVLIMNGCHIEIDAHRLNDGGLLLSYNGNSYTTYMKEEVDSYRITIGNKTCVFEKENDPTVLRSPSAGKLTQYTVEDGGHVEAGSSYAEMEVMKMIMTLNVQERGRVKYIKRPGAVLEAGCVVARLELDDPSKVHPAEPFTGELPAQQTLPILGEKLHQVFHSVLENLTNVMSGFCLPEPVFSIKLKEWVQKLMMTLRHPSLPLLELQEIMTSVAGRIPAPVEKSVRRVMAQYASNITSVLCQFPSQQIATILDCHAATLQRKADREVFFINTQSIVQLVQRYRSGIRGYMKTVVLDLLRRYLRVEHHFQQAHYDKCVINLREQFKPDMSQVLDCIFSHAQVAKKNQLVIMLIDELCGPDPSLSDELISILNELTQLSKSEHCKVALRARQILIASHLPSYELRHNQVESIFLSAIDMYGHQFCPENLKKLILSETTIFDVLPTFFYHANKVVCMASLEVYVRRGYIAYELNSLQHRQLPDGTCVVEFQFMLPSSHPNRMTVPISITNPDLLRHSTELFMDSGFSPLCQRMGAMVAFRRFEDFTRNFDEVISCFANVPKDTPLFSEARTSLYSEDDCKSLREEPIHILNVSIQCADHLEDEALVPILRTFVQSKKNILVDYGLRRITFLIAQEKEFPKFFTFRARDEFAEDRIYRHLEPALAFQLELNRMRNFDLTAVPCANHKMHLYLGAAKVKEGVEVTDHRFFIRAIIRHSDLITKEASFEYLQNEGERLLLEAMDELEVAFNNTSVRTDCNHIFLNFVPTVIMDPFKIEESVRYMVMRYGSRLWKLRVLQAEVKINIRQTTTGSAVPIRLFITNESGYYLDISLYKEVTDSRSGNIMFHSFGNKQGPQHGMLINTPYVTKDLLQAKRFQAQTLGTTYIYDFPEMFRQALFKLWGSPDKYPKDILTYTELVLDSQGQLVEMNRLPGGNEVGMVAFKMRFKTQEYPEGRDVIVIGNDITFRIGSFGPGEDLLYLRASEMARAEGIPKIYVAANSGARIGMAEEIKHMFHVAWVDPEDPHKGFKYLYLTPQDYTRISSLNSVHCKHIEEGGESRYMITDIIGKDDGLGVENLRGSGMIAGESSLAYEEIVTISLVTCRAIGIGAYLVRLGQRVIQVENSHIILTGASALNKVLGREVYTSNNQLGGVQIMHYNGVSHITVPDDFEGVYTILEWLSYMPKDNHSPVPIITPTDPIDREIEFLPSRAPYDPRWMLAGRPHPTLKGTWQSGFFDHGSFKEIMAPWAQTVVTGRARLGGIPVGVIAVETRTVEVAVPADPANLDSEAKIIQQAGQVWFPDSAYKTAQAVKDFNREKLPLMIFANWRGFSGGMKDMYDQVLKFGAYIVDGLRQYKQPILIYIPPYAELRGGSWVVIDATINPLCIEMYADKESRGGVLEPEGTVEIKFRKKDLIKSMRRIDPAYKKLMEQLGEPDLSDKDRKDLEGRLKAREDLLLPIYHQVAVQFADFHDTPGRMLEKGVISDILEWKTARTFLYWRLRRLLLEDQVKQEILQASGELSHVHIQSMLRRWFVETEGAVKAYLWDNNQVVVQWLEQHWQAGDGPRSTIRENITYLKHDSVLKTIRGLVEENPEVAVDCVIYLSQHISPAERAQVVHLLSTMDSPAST
row,IC50 [nM],Compound
1,90,Cc1cccc(-c2cnc(N3CCC(c4ccc([C@H](C)NC(=O)C5CC5)cc4)CC3)nc2)c1 [Example 10.100]
2,140,COc1cc(-c2cnc(N3CCC(c4ccc([C@H](C)NC(C)=O)cc4)CC3)nc2)ccc1C#N [Example 10.128]
3,200,COc1ccc(-c2cnc(N3CCC(c4ccc([C@H](C)NC(C)=O)cc4)CC3)nc2)cn1 [Example 10.2]
4,1200,CC(=O)N[C@@H](C)c1ccc(C2CCN(c3cc4c(cc3F)OCCCO4)CC2)cc1 [Example 1.184]
5,90,CC(=O)N[C@@H](C)c1ccc(C2CCN(c3ncc(-c4ccccc4F)cn3)CC2)cc1 [Example 10.13]
6,340,CCOc1ccc(N2CCC(c3ccc([C@H](C)NC(=O)c4cnco4)cc3)CC2)cc1 [Example 6.25]
7,120,Cc1ccc(-c2cnc(N3CCC(c4ccc([C@H](C)NC(=O)N(C)C)cc4)CC3)nc2)cc1 [Example 10.112]
8,5600,CCOc1ccc(N2CCC(c3ccc([C@H](C)NC(C)=O)cc3)CC2)cc1C#N [Example 8.16]
9,890,CCC(CC)Oc1nccc(N2CCC(c3ccc([C@H](C)NC(C)=O)cc3)CC2)n1 [Example 11.21]
10,1200,CC(=O)N[C@@H](C)c1ccc(C2CCN(c3nc(-c4ccccc4)cs3)CC2)cc1 [Example 5.20]
11,6100,CC(=O)N[C@@H](C)c1ccc(C2CCN(c3cc(NCc4ccco4)ncn3)CC2)cc1 [Example 11.59]
12,320,COc1cc(OC(C)C)ccc1N1CCC(c2ccc([C@H](C)NC(C)=O)cc2)CC1 [Example 1.35]
13,540,CC(=O)N[C@@H](C)c1ccc(C2CCN(c3ccnc(N(C)C(C)C)n3)CC2)cc1 [Example 11.47]
14,60,C[C@H](NC(=O)C1CC1)c1ccc(C2CCN(c3ccc(OC4CCCC4)cc3)CC2)cc1 [Example 1.117]
15,690,CCC(CC)Oc1cccc(N2CCC(c3ccc([C@H](C)NC(C)=O)cc3)CC2)c1 [Example 9.16]
16,480,COc1cc(N2CCC(c3ccc([C@H](C)NC(C)=O)cc3)CC2)ccc1OCC1CC1 [Example 9.44]
17,1400,C[C@H](NC(=O)C1CC1)c1ccc(C2CCN(c3nc(N4CCCC4)ncc3C#N)CC2)cc1 [Example 11.122]
18,4600,CC(=O)N[C@@H](C)c1ccc(C2CCN(c3ccnc(OCCc4ccccc4)n3)CC2)cc1 [Example 11.13]
19,70,CCCOc1ccc(N2CCC(c3ccc([C@H](C)NC(C)=O)cc3)CC2)c(F)c1 [Example 1.64]
20,18500,CC(=O)N[C@@H](C)c1ccc(C2CCN(c3cc(-n4ccc(=N)cc4)ncn3)CC2)cc1 [Example 11.52]
21,360,"CC(=O)N[C@@H](C)c1ccc(C2CCN(c3ccc(Oc4ccccc4)nc3)CC2)cc1 [Example 3.1, (S)—N-{1-[4-(6′-Phenoxy-3,4,5,6-tetrahydro-2H-1,3′]bipyridinyl-4-yl)-phenyl′-ethyl}-acetamide]"
22,230,CC(C)COc1ccc(N2CCC(c3ccc([C@H](C)NC(=O)N(C)C)cc3)CC2)nc1 [Example 1.126]
23,4100,CCOc1cccc(-c2cc(N3CCC(c4ccc([C@H](C)NC(C)=O)cc4)CC3)ncn2)c1 [Example 22.7]
24,2200,CC(=O)N[C@@H](C)c1ccc(C2CCN(c3ccnc(NCC(C)C)n3)CC2)cc1 [Example 11.66]
25,19000,CC(=O)N[C@@H](C)c1ccc(C2CCN(c3ncc(C(=O)N(C)CC4(C)COC4)cn3)CC2)cc1 [Example 18.68]
26,990,CC(=O)N[C@@H](C)c1ccc(C2CCN(c3ccc4nc(C)oc4c3)CC2)cc1 [Example 15.15]
27,120,CCC(CC)Oc1ccc(N2CCC(c3ccc([C@H](C)NC(C)=O)cc3)CC2)cc1 [Example 9.33]

row,IC50 [nM],Compound
1,230,CC(=O)N[C@@H](C)c1ccc(C2CCN(c3cc(OCC(C)C)ncn3)CC2)cc1 [Example 11.15]
2,1100,CC(=O)N[C@@H](C)c1ccc(C2CCN(c3ncc(-c4cncc(C#N)c4)cn3)CC2)cc1 [Example 10.79]
3,2500,"CC(=O)N[C@@H](C)c1ccc(C2CCN(c3ncccc3C#N)CC2)cc1 [Example 4.1, (S)—N-(1-{4-[1-(3-Cyanopyridin-2-yl)piperidin-4-yl]phenyl}ethyl)acetamide]"
4,7100,COCCN(C)C(=O)c1cnc(N2CCC(c3ccc([C@H](C)NC(C)=O)cc3)CC2)nc1 [Example 18.25]
5,7800,CCOc1ccc(N2CCC(c3ccc([C@H](C)NC(=O)N4CCCC4)cc3)CC2)cc1 [Example 14.68]
6,490,CCCOc1ccc(N2CCC(c3ccc([C@H](C)NC(=O)CC)cc3)CC2)c(OC)c1 [Example 1.147]
7,240,CCC(C)Oc1ccc(N2CCC(c3ccc([C@H](C)NC(=O)OC)cc3)CC2)cc1 (some centres unmarked) [Example 1.15]
8,720,COc1cc(C)c(N2CCC(c3ccc([C@H](C)NC(C)=O)cc3)CC2)cn1 [Example 1.56]
9,390,CCOc1cccc(-c2nccc(N3CCC(c4ccc([C@H](C)NC(C)=O)cc4)CC3)n2)c1 [Example 22.4]
10,140,CCC(=O)N[C@@H](C)c1ccc(C2CCN(c3ccc(OCC(C)C)cc3)CC2)cc1 [Example 1.149]
11,1100,CC(=O)N[C@@H](C)c1ccc(C2CCN(c3ccc(OCC4CCO4)c(Cl)c3)CC2)cc1 (some centres unmarked) [Example 8.50]
12,4600,CCC(NC(C)=O)c1ccc(C2CCN(c3ccc4c(c3)OCCO4)CC2)cc1 (centres unmarked) [Example 1.201]
13,200,CC(=O)N[C@@H](C)c1ccc(C2CCN(c3cc(N4CCCC4)ncn3)CC2)cc1 [Example 11.113]
14,25400,CC(=O)N[C@@H](C)c1ccc(C2CCN(c3ncc(C(=O)NCCS(C)(=O)=O)cn3)CC2)cc1 [Example 18.64]
15,290,CCOc1cc(N2CCC(c3ccc([C@H](C)NC(=O)C4CC4)cc3)CC2)ccn1 [Example 1.20]
16,600,CC(=O)N[C@@H](C)c1ccc(C2CCN(c3ncc(-c4ccco4)cn3)CC2)cc1 [Example 10.96]
17,80,CC(=O)N[C@@H](C)c1ccc(C2CCN(c3cccc(C(F)(F)F)c3)CC2)cc1 [Example 1.188]
18,360,CC(=O)N[C@@H](C)c1ccc(C2CCN(c3ccc4c(c3)OCO4)CC2)cc1 [Example 1.67]
19,570,C=CCC(=O)N[C@@H](C)c1ccc(C2CCN(c3ccc(OCC)cc3)CC2)cc1 [Example 6.16]
20,320,CC(=O)N[C@@H](C)c1ccc(C2CCN(c3ncc(-c4ccc5c(ccn5C)c4)cn3)CC2)cc1 [Example 10.25]
21,2800,"COC(=O)Cc1ccc(N2CCC(c3ccc([C@H](C)NC(C)=O)cc3)CC2)cc1 [Example 15.1, (S)-(4-{4-[4-(1-Acetylamino-ethyl)-phenyl]-piperidin-1-yl}-phenyl)-acetic acid methyl ester]"
22,3600,CC(=O)N[C@@H](C)c1ccc(C2CCN(c3ncc(C(=O)Nc4ccccc4C)cn3)CC2)cc1 [Example 18.7]
23,280,CC(C)Oc1cccc(N2CCC(c3ccc([C@H](C)NC(=O)N(C)C)cc3)CC2)c1 [Example 1.81]
24,370,CC(=O)N[C@@H](C)c1ccc(C2CCN(c3cccc(OCC4CCCCO4)c3)CC2)cc1 (some centres unmarked) [Example 9.15]
25,1400,CCOc1cc(N2CCC(c3ccc([C@H](C)NC(C)=O)cc3)CC2)c(F)cn1 [Example 1.190]
26,240,C[C@H](NC(=O)N(C)C)c1ccc(C2CCN(c3ncc(C4CC4)cn3)CC2)cc1 [Example 4.304]
